Experimental data: the supplement of paper PMC11208160

Experiment: recombinant barcode read abundance after kanamycin selection (control-corrected) (log10(CPM+1)); higher = more efficient recombination; sequences stand for … in AGTGCAGAGAAAATCGGCCAGTTTTCTCTGCCTGCAGTCCGCATGCCGT…ATTTATGCAGCGGACTGCCTTTCTCCCAAAGTGATAAACCGGACAGTATCATGGACCGGTTTTCCCGGTAATCCGTATTTGCAAGGTTGGTTTCACT; site = the 11-nt target
Summary of the method: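 Targets were screened in pooled form in E. coli against IS621 bridge RNA target-binding loops. Recombination efficiency is based on barcode counts at recombinant junctions in counts per million, averaged and corrected for the control. Numbers are shown as log10(CPM+1), with duplicate plates on chloramphenicol/ampicillin LB agar (control) or chloramphenicol/ampicillin/kanamycin with 0.1 mM IPTG.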

Row | Sequence | recombinant barcode read abundance (log10)
1 | CATATTAACTGGGTTCTAACCTGTTGCCTAG [CATATTACTAG_LTGcore_AC_RTGcore_CT] (site CATATTACTAG) (LTG core: AC, RTG core: CT) | 0.441
2 | CATATTACCTGGGTTCTAACCTGTTGCCTAG [CATATTACTAG_LTGcore_CC_RTGcore_CT] (site CATATTACTAG) (LTG core: CC, RTG core: CT) | 0.0888
3 | CATATTACTTGGGTTCTAACCTGTTGCCTCC [CATATTACTAG_LTGcore_CT_RTGcore_GG] (site CATATTACTAG) (LTG core: CT, RTG core: GG) | 0.2
4 | CATATTACTTGGGTTCTAACCTGTTGCCTTA [CATATTACTAG_LTGcore_CT_RTGcore_TA] (site CATATTACTAG) (LTG core: CT, RTG core: TA) | 0.12
5 | CATATTACTTGGGTTCTAACCTGTTGCCTTG [CATATTACTAG_LTGcore_CT_RTGcore_CA] (site CATATTACTAG) (LTG core: CT, RTG core: CA) | 0.214
6 | CATATTAGATGGGTTCTAACCTGTTGCCTAG [CATATTACTAG_LTGcore_GA_RTGcore_CT] (site CATATTACTAG) (LTG core: GA, RTG core: CT) | 0.239
7 | CGAGCCCAATGGGTTCTAACCTGTTGCTGTT [CGAGCCCCTCA_LTGcore_AA_RTGcore_AA] (site CGAGCCCCTCA) (LTG core: AA, RTG core: AA) | 0.0507
8 | CGAGCCCCTTGGGTTCTAACCTGTTGCTGAT [CGAGCCCCTCA_LTGcore_CT_RTGcore_AT] (site CGAGCCCCTCA) (LTG core: CT, RTG core: AT) | 0.29
9 | CGAGCCCCTTGGGTTCTAACCTGTTGCTGCT [CGAGCCCCTCA_LTGcore_CT_RTGcore_AG] (site CGAGCCCCTCA) (LTG core: CT, RTG core: AG) | 0.203
10 | CGAGCCCCTTGGGTTCTAACCTGTTGCTGGT [CGAGCCCCTCA_LTGcore_CT_RTGcore_AC] (site CGAGCCCCTCA) (LTG core: CT, RTG core: AC) | 1.21
11 | CGAGCCCTTTGGGTTCTAACCTGTTGCTGAG [CGAGCCCCTCA_LTGcore_TT_RTGcore_CT] (site CGAGCCCCTCA) (LTG core: TT, RTG core: CT) | 0.048
12 | CGCGCCCAGTGGGTTCTAACCTGTTGCGGCT [CGCGCCCCTCC_LTGcore_AG_RTGcore_AG] (site CGCGCCCCTCC) (LTG core: AG, RTG core: AG) | 0.0334
13 | CGCGCCCATTGGGTTCTAACCTGTTGCGGAG [CGCGCCCCTCC_LTGcore_AT_RTGcore_CT] (site CGCGCCCCTCC) (LTG core: AT, RTG core: CT) | 0.0641
14 | CGCGCCCCTTGGGTTCTAACCTGTTGCGGAG [CGCGCCCCTCC_LTGcore_CT_RTGcore_CT] (site CGCGCCCCTCC) (LTG core: CT, RTG core: CT) | 0.131
15 | CGCGCCCCTTGGGTTCTAACCTGTTGCGGCA [CGCGCCCCTCC_LTGcore_CT_RTGcore_TG] (site CGCGCCCCTCC) (LTG core: CT, RTG core: TG) | 0
16 | CGCGCCCCTTGGGTTCTAACCTGTTGCGGGC [CGCGCCCCTCC_LTGcore_CT_RTGcore_GC] (site CGCGCCCCTCC) (LTG core: CT, RTG core: GC) | 0.592
17 | CGCGCCCCTTGGGTTCTAACCTGTTGCGGTA [CGCGCCCCTCC_LTGcore_CT_RTGcore_TA] (site CGCGCCCCTCC) (LTG core: CT, RTG core: TA) | 0.602
18 | CGCGCCCGATGGGTTCTAACCTGTTGCGGTC [CGCGCCCCTCC_LTGcore_GA_RTGcore_GA] (site CGCGCCCCTCC) (LTG core: GA, RTG core: GA) | 0.158
19 | CGCGCCCGGTGGGTTCTAACCTGTTGCGGAG [CGCGCCCCTCC_LTGcore_GG_RTGcore_CT] (site CGCGCCCCTCC) (LTG core: GG, RTG core: CT) | 0.557
20 | CGCGCCCTATGGGTTCTAACCTGTTGCGGAG [CGCGCCCCTCC_LTGcore_TA_RTGcore_CT] (site CGCGCCCCTCC) (LTG core: TA, RTG core: CT) | 0.334
21 | CGCGCCCTTTGGGTTCTAACCTGTTGCGGAG [CGCGCCCCTCC_LTGcore_TT_RTGcore_CT] (site CGCGCCCCTCC) (LTG core: TT, RTG core: CT) | 0.127
22 | CGGTCCCACTGGGTTCTAACCTGTTGCCAGT [CGGTCCCCTTG_LTGcore_AC_RTGcore_AC] (site CGGTCCCCTTG) (LTG core: AC, RTG core: AC) | 0.19

Row | Sequence | recombinant barcode read abundance (log10)
23 | CGGTCCCAGTGGGTTCTAACCTGTTGCCAAG [CGGTCCCCTTG_LTGcore_AG_RTGcore_CT] (site CGGTCCCCTTG) (LTG core: AG, RTG core: CT) | 0.0476
24 | CGGTCCCATTGGGTTCTAACCTGTTGCCAAG [CGGTCCCCTTG_LTGcore_AT_RTGcore_CT] (site CGGTCCCCTTG) (LTG core: AT, RTG core: CT) | 1.07
25 | CGGTCCCCCTGGGTTCTAACCTGTTGCCAAG [CGGTCCCCTTG_LTGcore_CC_RTGcore_CT] (site CGGTCCCCTTG) (LTG core: CC, RTG core: CT) | 0.189
26 | CGGTCCCCTTGGGTTCTAACCTGTTGCCATG [CGGTCCCCTTG_LTGcore_CT_RTGcore_CA] (site CGGTCCCCTTG) (LTG core: CT, RTG core: CA) | 1.6
27 | CGGTCCCGTTGGGTTCTAACCTGTTGCCAAC [CGGTCCCCTTG_LTGcore_GT_RTGcore_GT] (site CGGTCCCCTTG) (LTG core: GT, RTG core: GT) | 0.229
28 | CGGTCCCTCTGGGTTCTAACCTGTTGCCAAG [CGGTCCCCTTG_LTGcore_TC_RTGcore_CT] (site CGGTCCCCTTG) (LTG core: TC, RTG core: CT) | 0.355
29 | CGGTCCCTCTGGGTTCTAACCTGTTGCCAGA [CGGTCCCCTTG_LTGcore_TC_RTGcore_TC] (site CGGTCCCCTTG) (LTG core: TC, RTG core: TC) | 0.174
30 | CGGTCCCTGTGGGTTCTAACCTGTTGCCACA [CGGTCCCCTTG_LTGcore_TG_RTGcore_TG] (site CGGTCCCCTTG) (LTG core: TG, RTG core: TG) | 0.175
31 | CGGTCCCTTTGGGTTCTAACCTGTTGCCAAG [CGGTCCCCTTG_LTGcore_TT_RTGcore_CT] (site CGGTCCCCTTG) (LTG core: TT, RTG core: CT) | 0.0132
32 | GAGCCCACTTGGGTTCTAACCTGTTGCCTAT [GAGCCCACTAG_LTGcore_CT_RTGcore_AT] (site GAGCCCACTAG) (LTG core: CT, RTG core: AT) | 0.41
33 | GAGCCCAGCTGGGTTCTAACCTGTTGCCTGC [GAGCCCACTAG_LTGcore_GC_RTGcore_GC] (site GAGCCCACTAG) (LTG core: GC, RTG core: GC) | 0.0674
34 | GAGCCCAGGTGGGTTCTAACCTGTTGCCTAG [GAGCCCACTAG_LTGcore_GG_RTGcore_CT] (site GAGCCCACTAG) (LTG core: GG, RTG core: CT) | 0.181
35 | GAGCCCAGTTGGGTTCTAACCTGTTGCCTAG [GAGCCCACTAG_LTGcore_GT_RTGcore_CT] (site GAGCCCACTAG) (LTG core: GT, RTG core: CT) | 0.0941
36 | GAGCCCATATGGGTTCTAACCTGTTGCCTTA [GAGCCCACTAG_LTGcore_TA_RTGcore_TA] (site GAGCCCACTAG) (LTG core: TA, RTG core: TA) | 0.338
37 | GAGCCCATCTGGGTTCTAACCTGTTGCCTAG [GAGCCCACTAG_LTGcore_TC_RTGcore_CT] (site GAGCCCACTAG) (LTG core: TC, RTG core: CT) | 0.102
38 | GAGCCCATTTGGGTTCTAACCTGTTGCCTAA [GAGCCCACTAG_LTGcore_TT_RTGcore_TT] (site GAGCCCACTAG) (LTG core: TT, RTG core: TT) | 0.178
39 | GAGGCCTCCTGGGTTCTAACCTGTTGCCAGG [GAGGCCTCTTG_LTGcore_CC_RTGcore_CC] (site GAGGCCTCTTG) (LTG core: CC, RTG core: CC) | 0.215
40 | GAGGCCTCTTGGGTTCTAACCTGTTGCCAAA [GAGGCCTCTTG_LTGcore_CT_RTGcore_TT] (site GAGGCCTCTTG) (LTG core: CT, RTG core: TT) | 0.822
41 | GAGGCCTCTTGGGTTCTAACCTGTTGCCAAT [GAGGCCTCTTG_LTGcore_CT_RTGcore_AT] (site GAGGCCTCTTG) (LTG core: CT, RTG core: AT) | 0
42 | GAGGCCTCTTGGGTTCTAACCTGTTGCCACC [GAGGCCTCTTG_LTGcore_CT_RTGcore_GG] (site GAGGCCTCTTG) (LTG core: CT, RTG core: GG) | 0.236
43 | GAGGCCTCTTGGGTTCTAACCTGTTGCCACG [GAGGCCTCTTG_LTGcore_CT_RTGcore_CG] (site GAGGCCTCTTG) (LTG core: CT, RTG core: CG) | 0.128
